The record followed here is US20250059180A1 (DONG WHA PHARM. CO., LTD., priority 2022, published 2025).

The target of one test is EZH1 (Homo sapiens, UniProt Q92800). Kind of test: AlphaLISA evaluation of inhibitory activity against EZH1. It is filed as biochemical. The settings on record: DMSO control; for Enzyme inhibition % EZH1 5 nM: test material 5 nM; for Enzyme inhibition % EZH1 10 nM: test material 10 nM. As for the experimental part: (§1) In order to confirm the EZH1 and/or EZH2 activity inhibitory effect of the 1,3-benzodioxole derivative compounds represented by chemical formula I of the present invention, the activity was measured using an AlphaLISA test method.
(§2) The test material dissolved in dimethylsulfoxide (DMSO) was diluted in a test solution (20 mM Tris pH 8.0, 0.1% BSA, 0.01% Triton X-100, 0.5 mM DTT) according to a final treatment concentration (5 nM or 10 nM), mixed with EZH1 and EZH2, respectively, and then added with histone H3 peptide and S-adenosylmethionine (SAM) to initiate an enzyme reaction. An acceptor bead was added thereto after reaction for two hours and subjected to an additional reaction for one hour, after which a donor bead was added thereto. After an additional reaction for 30 minutes, the reaction was completed. Activity was measured using the Magellan program on a Spark10M instrument. DMSO was used as a control group, an inhibition rate of enzyme activity was calculated using the following equation, and the results thereof are shown in Table 1 below.
(§3) Activity inhibition rate (%)=(1−(Group treated with test material/Control group))*100

For another test, the target named is EZH2 (Homo sapiens, UniProt Q15910). Kind of test: AlphaLISA evaluation of inhibitory activity against EZH2. It counts as biochemical. The settings on record: DMSO control; for Enzyme inhibition % EZH2 5 nM: test material 5 nM; for Enzyme inhibition % EZH2 10 nM: test material 10 nM. The procedure:
as §1, §2, §3

The test system of test [1] is Pfeiffer cells, lymphoma cells having EZH2 mutation (A677G). Kind of test: Proliferation inhibition of cells of hematologic malignancies (CCK-8, 11 days). Conditions: 11 days culture, read-out: Cell proliferation inhibitory effect (IC50). It counts as cell-based. Put shortly:
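Pfeiffer lymphoma cells (EZH2 A677G) in RPMI1640 with 10% FBS were seeded at 10,000 cells/well and exposed to test material for 11 days, with compound replaced every 3–4 days. Viability was read by CCK-8 absorbance at 450 nm, and IC50 was derived by non-linear regression curve fitting.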

Like-named read-outs stand apart in the source and are kept apart here.

Chain of EZH2 (Q15910 whole entry): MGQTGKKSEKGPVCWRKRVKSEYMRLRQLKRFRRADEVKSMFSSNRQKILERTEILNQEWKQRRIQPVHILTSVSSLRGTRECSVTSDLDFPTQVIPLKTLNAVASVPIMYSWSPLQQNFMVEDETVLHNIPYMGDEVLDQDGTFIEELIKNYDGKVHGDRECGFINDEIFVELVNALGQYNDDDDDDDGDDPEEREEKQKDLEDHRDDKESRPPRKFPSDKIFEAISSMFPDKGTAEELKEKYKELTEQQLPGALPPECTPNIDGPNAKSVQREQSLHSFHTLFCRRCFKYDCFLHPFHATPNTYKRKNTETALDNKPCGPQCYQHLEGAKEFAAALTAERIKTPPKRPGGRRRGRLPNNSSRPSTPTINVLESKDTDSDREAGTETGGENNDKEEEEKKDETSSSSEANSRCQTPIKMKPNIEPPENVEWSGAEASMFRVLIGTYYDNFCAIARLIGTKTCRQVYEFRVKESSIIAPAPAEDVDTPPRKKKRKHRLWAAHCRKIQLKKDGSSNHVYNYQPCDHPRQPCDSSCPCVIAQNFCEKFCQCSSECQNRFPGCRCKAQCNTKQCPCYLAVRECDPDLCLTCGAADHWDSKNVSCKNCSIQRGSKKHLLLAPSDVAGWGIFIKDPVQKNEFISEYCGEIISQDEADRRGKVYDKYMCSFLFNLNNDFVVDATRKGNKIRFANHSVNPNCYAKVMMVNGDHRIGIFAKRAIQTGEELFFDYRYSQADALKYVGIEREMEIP
Chain of EZH2 (O75530 whole entry partner): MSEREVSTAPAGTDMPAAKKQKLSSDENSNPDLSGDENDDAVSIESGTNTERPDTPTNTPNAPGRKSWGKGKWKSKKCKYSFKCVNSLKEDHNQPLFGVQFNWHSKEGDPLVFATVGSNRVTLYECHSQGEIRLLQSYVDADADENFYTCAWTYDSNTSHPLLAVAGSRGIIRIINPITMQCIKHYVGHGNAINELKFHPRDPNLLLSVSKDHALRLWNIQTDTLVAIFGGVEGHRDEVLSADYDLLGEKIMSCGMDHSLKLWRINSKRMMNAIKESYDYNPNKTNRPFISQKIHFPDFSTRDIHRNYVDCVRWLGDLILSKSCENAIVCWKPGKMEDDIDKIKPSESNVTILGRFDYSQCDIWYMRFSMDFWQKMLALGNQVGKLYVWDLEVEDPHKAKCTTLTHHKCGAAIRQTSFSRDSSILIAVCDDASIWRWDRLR
Chain of EZH2 (Q15022 whole entry partner): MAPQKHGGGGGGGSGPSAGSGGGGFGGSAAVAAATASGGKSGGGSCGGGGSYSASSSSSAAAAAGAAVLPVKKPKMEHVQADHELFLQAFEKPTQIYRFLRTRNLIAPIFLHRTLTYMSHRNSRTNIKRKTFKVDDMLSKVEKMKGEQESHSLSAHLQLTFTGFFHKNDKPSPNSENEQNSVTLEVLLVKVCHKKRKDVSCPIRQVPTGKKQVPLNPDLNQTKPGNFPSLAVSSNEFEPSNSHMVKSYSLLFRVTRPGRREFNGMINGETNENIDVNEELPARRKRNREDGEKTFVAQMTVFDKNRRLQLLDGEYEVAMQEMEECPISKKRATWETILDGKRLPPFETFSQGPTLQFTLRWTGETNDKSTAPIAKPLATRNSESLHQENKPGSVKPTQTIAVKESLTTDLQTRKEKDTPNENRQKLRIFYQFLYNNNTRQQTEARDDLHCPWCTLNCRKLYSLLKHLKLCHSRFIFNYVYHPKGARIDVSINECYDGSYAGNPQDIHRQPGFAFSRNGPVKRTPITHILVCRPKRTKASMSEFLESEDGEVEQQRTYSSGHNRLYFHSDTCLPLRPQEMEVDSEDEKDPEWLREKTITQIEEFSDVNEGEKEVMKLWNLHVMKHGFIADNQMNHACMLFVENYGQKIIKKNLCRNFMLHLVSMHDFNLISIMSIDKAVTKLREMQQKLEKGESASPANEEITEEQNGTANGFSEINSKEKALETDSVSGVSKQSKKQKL
Chain of EZH1 (Q92800 whole entry): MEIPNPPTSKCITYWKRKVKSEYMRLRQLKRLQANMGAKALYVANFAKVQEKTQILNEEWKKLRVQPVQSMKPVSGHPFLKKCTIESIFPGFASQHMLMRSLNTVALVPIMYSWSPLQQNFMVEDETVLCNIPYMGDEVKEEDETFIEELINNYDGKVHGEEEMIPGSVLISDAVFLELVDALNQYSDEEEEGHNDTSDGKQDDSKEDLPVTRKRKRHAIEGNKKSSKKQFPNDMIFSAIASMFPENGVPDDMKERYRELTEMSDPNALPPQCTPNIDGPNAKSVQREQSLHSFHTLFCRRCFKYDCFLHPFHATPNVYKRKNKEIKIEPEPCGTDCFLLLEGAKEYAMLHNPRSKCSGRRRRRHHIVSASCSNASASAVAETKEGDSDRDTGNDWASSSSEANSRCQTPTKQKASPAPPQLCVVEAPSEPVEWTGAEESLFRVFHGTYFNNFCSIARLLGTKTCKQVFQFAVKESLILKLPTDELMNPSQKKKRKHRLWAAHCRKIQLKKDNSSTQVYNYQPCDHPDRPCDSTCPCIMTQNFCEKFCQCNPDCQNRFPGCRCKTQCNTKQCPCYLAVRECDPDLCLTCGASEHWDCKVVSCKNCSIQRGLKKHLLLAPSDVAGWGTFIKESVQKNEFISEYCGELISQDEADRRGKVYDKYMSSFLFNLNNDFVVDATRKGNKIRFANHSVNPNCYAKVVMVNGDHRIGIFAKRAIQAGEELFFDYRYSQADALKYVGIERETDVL
Chain of EZH1 (O75530 whole entry partner): as the sequence (O75530 whole entry partner) above
Chain of EZH1 (Q15022 whole entry partner): as the sequence (Q15022 whole entry partner) above

With `CSc1cc(C)[nH]c(=O)c1CNC(=O)c1cc(-c2cnc(N3CCOCC3)nc2)c2c(c1C)OC(C)(C1CCN(CC(F)(F)F)CC1)O2` (centres unmarked) [Compound 69, 2,4-dimethyl-N-((6-methyl-4-(methylthio)-2-oxo-1,2-dihydropyridin-3-yl)methyl)-7-(2-morpholinopyrimidin-5-yl)-2-(1-(2,2,2-trifluoro)piperidin-4-yl)benzo[d][1,3]dioxole-5-carboxamide], on EZH1, the “Enzyme inhibition % EZH1 5 nM” value came to 71.9% and the “Enzyme inhibition % EZH1 10 nM” value was determined as 87.9%. For the same compound, at EZH2, the “Enzyme inhibition % EZH2 5 nM” value is reported as 98.2% and the “Enzyme inhibition % EZH2 10 nM” value amounted to 99.6%. Also, in test [1], the IC50 is at most 10 nM.

In the case of `CSc1cc(C)[nH]c(=O)c1CNC(=O)c1cc(-c2ccc(N3C[C@@H](C)O[C@@H](C)C3)nc2)c2c(c1C)OC(C)(C1CCN(CC(F)(F)F)CC1)O2` (single isomer, unassigned) [Compound 45], in test [1], the IC50 is at least 100 nM.

As to `CCN1CCC(C2(C)Oc3c(-c4cnc(N(C)CC)nc4)cc(C(=O)NCc4c(SC)cc(C)[nH]c4=O)c(C)c3O2)CC1` (single isomer, unassigned) [Compound 84, 7-(2-(ethyl(methyl)amino)pyrimidin-5-yl)-2-(1-ethylpiperidin-4-yl)-2,4-dimethyl-N-((6-methyl-4-(methylthio)-2-oxo-1,2-dihydropyridin-3-yl)methyl)benzo[d][1,3]dioxole-5-carboxamide], in test [1], the IC50 was at least 100 nM. As to `CSc1cc(C)[nH]c(=O)c1CNC(=O)c1cc(-c2ccc(N3CCC(F)(F)CC3)nc2)c2c(c1C)OC(C)([C@H]1CC[C@H](N(C)C)CC1)O2` (stereo partly drawn) [Compound 3, 7-(6-(4,4-difluoropiperidin-1-yl)pyridin-3-yl)-2-(trans-4-(dimethylamino)cyclohexyl)-2,4-dimethyl-N-((6-methyl-4-(methylthio)-2-oxo-1,2-dihydropyridin-3-yl)methyl)benzo[d][1,3]dioxole-5-carboxamide], the IC50 in test [1] (Homo sapiens, Pfeiffer, 264 h) was at most 10 nM. Still for that read-out and setting: to `COC(CN1CCC(C2(C)Oc3c(-c4ccc(N5C[C@@H](C)O[C@@H](C)C5)nc4)cc(C(=O)NCc4c(SC)cc(C)[nH]c4=O)c(C)c3O2)CC1)OC` (stereo partly drawn) [Compound 41, 2-(1-(2,2-dimethoxyethyl)piperidin-4-yl)-7-(6-((2S,6R)-2,6-dimethylmorpholino)pyridin-3-yl)-2,4-dimethyl-N-((6-methyl-4-(methylthio)-2-oxo-1,2-dihydropyridin-3-yl)methyl)benzo[d][1,3]dioxole-5-carboxamide] belongs at most 10 nM; to `CSc1cc(C)[nH]c(=O)c1CNC(=O)c1cc(-c2ccc(N3C[C@@H](C)O[C@@H](C)C3)nc2)c2c(c1C)OC(C)([C@H]1CC[C@H](N(C)C[C@H](C)O)CC1)O2` (stereo partly drawn) [Compound 29, 7-(6-((2S,6R)-2,6-dimethylmorpholino)pyridin-3-yl)-2-(trans-4-(((S)-2-hydroxypropyl)(methyl)amino)cyclohexyl)-2,4-dimethyl-N-((6-methyl-4-(methylthio)-2-oxo-1,2-dihydropyridin-3-yl)methyl)benzo[d][1,3]dioxole-5-carboxamide], at most 10 nM; to `CSc1cc(C)[nH]c(=O)c1CNC(=O)c1cc(-c2cnc(N3CCC4(CC3)COC4)nc2)c2c(c1C)OC(C)([C@H]1CC[C@H](N(C)C)CC1)O2` (stereo partly drawn) [Compound 15, 7-(2-(2-oxa-7-azaspiro[3.5]nonan-7-yl)pyrimidin-5-yl)-2-(trans-4-(dimethylamino)cyclohexyl)-2,4-dimethyl-N-((6-methyl-4-(methylthio)-2-oxo-1,2-dihydropyridin-3-yl)methyl)benzo[d][1,3]dioxole-5-carboxamide], at most 10 nM. As for `CSc1cc(C)[nH]c(=O)c1CNC(=O)c1cc(-c2ccc(N3CCOCC3)nc2)c2c(c1C)OC(C)(C1CCN(CC(F)(F)F)CC1)O2` (centres unmarked) [Compound 63, 2,4-dimethyl-N-((6-methyl-4-(methylthio)-2-oxo-1,2-dihydropyridin-3-yl)methyl)-7-(6-morpholinopyridin-3-yl)-2-(1-(2,2,2-trifluoro)piperidin-4-yl)benzo[d][1,3]dioxole-5-carboxamide], the IC50 in test [1] is at least 100 nM. Regarding `CSc1cc(C)[nH]c(=O)c1CNC(=O)c1cc(-c2ccc(N3C[C@@H](C)O[C@@H](C)C3)nc2)c2c(c1C)OC(C)([C@H]1CC[C@H](N(C)C(C)C)CC1)O2` (stereo partly drawn) [Compound 110, 7-(6-((2S,6R)-2,6-dimethylmorpholino)pyridin-3-yl)-2-(trans-4-(isopropyl(methyl)amino)cyclohexyl)-2,4-dimethyl-N-((6-methyl-4-(methylthio)-2-oxo-1,2-dihydropyridin-3-yl)methyl)benzo[d][1,3]dioxole-5-carboxamide], the IC50 in test [1] (Homo sapiens, Pfeiffer, 264 h) is at most 10 nM.

As for `CSc1cc(C)[nH]c(=O)c1CNC(=O)c1cc(-c2ccc(N3CCOCC3)nc2)c2c(c1C)OC(C)(C1CCN(CC(F)(F)F)CC1)O2` (centres unmarked) [Compound 62, 2,4-dimethyl-N-((6-methyl-4-(methylthio)-2-oxo-1,2-dihydropyridin-3-yl)methyl)-7-(6-morpholinopyridin-3-yl)-2-(1-(2,2,2-trifluoro)piperidin-4-yl)benzo[d][1,3]dioxole-5-carboxamide], at EZH1, the “Enzyme inhibition % EZH1 5 nM” value stood at 66.9% and the “Enzyme inhibition % EZH1 10 nM” value was found to be 81.8%. At EZH2, the “Enzyme inhibition % EZH2 5 nM” value is on record as 93.6% and the “Enzyme inhibition % EZH2 10 nM” value is given as 99.4%. In addition, the IC50 in test [1] is at most 10 nM.

For the compound `CCN1CCC(C2(C)Oc3c(-c4cnc(N5CCOCC5)nc4)cc(C(=O)NCc4c(SC)cc(C)[nH]c4=O)c(C)c3O2)CC1` (single isomer, unassigned) [Compound 73, 2-(1-ethylpiperidin-4-yl)-2,4-dimethyl-N-((6-methyl-4-(methylthio)-2-oxo-1,2-dihydropyridin-3-yl)methyl)-7-(2-morpholinopyrimidin-5-yl)benzo[d][1,3]dioxole-5-carboxamide], in test [1], the IC50 is at most 10 nM.

In the case of `CSc1cc(C)[nH]c(=O)c1CNC(=O)c1cc(-c2ccc(N3C[C@@H](C)O[C@@H](C)C3)nc2)c2c(c1C)OC(C)(C1CCN(CC(F)F)CC1)O2` (single isomer, unassigned) [Compound 47], the IC50 in test [1] is at most 10 nM. Consider `COCCN(C)[C@H]1CC[C@H](C2(C)Oc3c(-c4cnc(N(C)C)nc4)cc(C(=O)NCc4c(SC)cc(C)[nH]c4=O)c(C)c3O2)CC1` (stereo partly drawn) [Compound 26, 7-(2-(dimethylamino)pyrimidin-5-yl)-2-(trans-4-((2-methoxyethyl)(methyl)amino)cyclohexyl)-2,4-dimethyl-N-((6-methyl-4-(methylthio)-2-oxo-1,2-dihydropyridin-3-yl)methyl)benzo[d][1,3]dioxole-5-carboxamide], for which the IC50 in test [1] (Homo sapiens, Pfeiffer, 264 h) is at most 10 nM. For `CSc1cc(C)[nH]c(=O)c1CNC(=O)c1cc(-c2cnc(N3CCSCC3)nc2)c2c(c1C)OC(C)(C1CCN(CC(F)(F)F)CC1)O2` (centres unmarked) [Compound 92, 2,4-dimethyl-N-((6-methyl-4-(methylthio)-2-oxo-1,2-dihydropyridin-3-yl)methyl)-7-(2-thiomorpholinopyrimidin-5-yl)-2-(1-(2,2,2-trifluoroethyl)piperidin-4-yl)benzo[d][1,3]dioxole-5-carboxamide], the IC50 in test [1] (Homo sapiens, Pfeiffer, 264 h) is 10 to 100 nM. Still for that read-out and setting: to `CCCCN(C)c1ccc(-c2cc(C(=O)NCc3c(SC)cc(C)[nH]c3=O)c(C)c3c2OC(C)(C2CCN(CC(F)(F)F)CC2)O3)cn1` (centres unmarked) [Compound 98, 7-(6-(butyl(methyl)amino)pyridin-3-yl)-2,4-dimethyl-N-((6-methyl-4-(methylthio)-2-oxo-1,2-dihydropyridin-3-yl)methyl)-2-(1-(2,2,2-trifluoroethyl)piperidin-4-yl)benzo[d][1,3]dioxole-5-carboxamide] belongs at least 100 nM.

Take `CCN1CCC(C2(C)Oc3c(-c4ccc(N5C[C@@H](C)O[C@@H](C)C5)nc4)cc(C(=O)NCc4c(SC)cc(C)[nH]c4=O)c(C)c3O2)CC1` (single isomer, unassigned) [Compound 49]: the IC50 in test [1] is at most 10 nM. In the case of `CSc1cc(C)[nH]c(=O)c1CNC(=O)c1cc(-c2cnc(N3CCC(F)(F)CC3)nc2)c2c(c1C)OC(C)([C@H]1CC[C@H](N(C)C)CC1)O2` (stereo partly drawn) [Compound 8, 7-(2-(4,4-difluoropiperidin-1-yl)pyrimidin-5-yl)-2-(trans-4-(dimethylamino)cyclohexyl)-2,4-dimethyl-N-((6-methyl-4-(methylthio)-2-oxo-1,2-dihydropyridin-3-yl)methyl)benzo[d][1,3]dioxole-5-carboxamide], in test [1] (Homo sapiens, Pfeiffer, 264 h), the IC50 is at most 10 nM. Turning to `CSc1cc(C)[nH]c(=O)c1CNC(=O)c1cc(-c2ccc(N3CCOCC3)nc2)c2c(c1C)OC(C)(C1CCN(CC(F)F)CC1)O2` (single isomer, unassigned) [Compound 65, 2-(1-(2,2-difluoroethyl)piperidin-4-yl)-2,4-dimethyl-N-((6-methyl-4-(methylthio)-2-oxo-1,2-dihydropyridin-3-yl)methyl)-7-(6-morpholinopyridin-3-yl)benzo[d][1,3]dioxole-5-carboxamide], the IC50 in test [1] was at least 100 nM.
